Literature values, collected in patent US20250283177A1, “BIOMARKERS AND METHODS OF USE THEREOF FOR TREATMENT OF PERIPHERAL T-CELL LYMPHOMA” (BOARD OF REGENTS OF THE UNIVERSITY OF NEBRASKA, priority 2022, published 2025).
Where two headings read alike, the source gives them in different places.

B1: mogamulizumab (antibody, chains of the INN, looked up, V domains shown)
VH: EVQLVESGGDLVQPGRSLRLSCAASGFIFSNYGMSWVRQAPGKGLEWVATISSASTYSYYPDSVKGRFTISRDNAKNSLYLQMNSLRVEDTALYYCGRHSDGNFAFGYWGQGTLVTVSS
VL: DVLMTQSPLSLPVTPGEPASISCRSSRNIVHINGDTYLEWYLQKPGQSPQLLIYKVSNRFSGVPDRFSGSGSGTDFTLKISRVEAEDVGVYYCFQGSLLPWTFGQGTKVEIK

How the values were obtained:
[1] = system: peripheral T-cell lymphoma (PTCL); details: for Overall response rate by common subtype: Phase II studies
[2] = system: subgroups of PTCL

Row | Molecule | Overall response rate by common subtype ([1]; subtype AITL) [%] | Overall response rate by common subtype ([1]; subtype ALCL) [%] | Overall response rate by common subtype ([1]; subtype PTCL-NOS) [%] | Benefit in PTCL subgroup ([2]; ALK+ALCL) | Responsiveness to therapy ([1]; ALK(−) ALCL) | Benefit in PTCL subgroup ([2]; CD30+ PTCL, particularly ALCL) | Benefit in PTCL subgroup ([2]; ATLL)
1 | O=C(/C=C/c1cccc(S(=O)(=O)Nc2ccccc2)c1)NO [Belinostat] | 46 | 15 | 23 |  |  |  | 
2 | C[C@@H](Oc1cc(-c2cnn(C3CCNCC3)c2)cnc1N)c1c(Cl)ccc(F)c1Cl [Crizotinib] |  |  |  | striking benefits |  |  | 
3 | C#CCC(Cc1cnc2nc(N)nc(N)c2n1)c1ccc(C(=O)N[C@@H](CCC(=O)O)C(=O)O)cc1 (stereo partly shown) [Pralatrexate] | 8 | 29 | 31 |  |  |  | 
4 | Brentuximab vedotin | 54 | 86 | 33 |  | highly responsive | striking benefits | 
5 | B1 |  |  |  |  |  |  | striking benefits
